Data: ChEMBL document CHEMBL4665709, “Rational Avoidance of Protease Cleavage Sites and Symmetrical End-Tagging Significantly Enhances the Stability and Therapeutic Potential of Antimicrobial Peptides” (J Med Chem, 2020)
Values after ≈ are worked out from the molar mass of the structure shown. Where a SMILES comes first, the peptide text is derived from it.

How the values were obtained:
Staphylococcus aureus [1] = assay: Antibacterial activity against methicillin-resistant Staphylococcus aureus 43300 after 18 to 24 hrs by CLSI-based broth microdilution method; assay type: functional; conditions: time hrs 18-24
Salmonella typhimurium [2] = assay: Antibacterial activity against Salmonella typhimurium 14028 after 18 to 24 hrs by CLSI-based broth microdilution method; assay type: functional, Salmonella enterica subsp. enterica serovar Typhimurium; conditions: Salmonella enterica, time hrs 18-24
[3] = Therapeutic index, ratio of MHC for human RBC to geometric mean of peptide MIC for Escherichia coli UB1005; assay type: toxicity; conditions: human red blood cells (RBC), read-out: TI
[4] = Therapeutic index, ratio of MHC for human RBC to geometric mean of peptide MIC for Salmonella typhimurium 7731; assay type: toxicity; conditions: human red blood cells (RBC), read-out: TI
[5] = Therapeutic index, ratio of MHC for human RBC to geometric mean of peptide MIC for Escherichia coli ATCC 25922; assay type: toxicity; conditions: human red blood cells (RBC), read-out: TI
[6] = Hemolytic activity in human RBC assessed as hemolysis at 1 to 128 uM relative to control; assay type: ADME, cell-based, Erythrocyte; conditions: human red blood cells (RBC), dose 1-128 µM, read-out: Activity
Enterococcus faecalis = assay: Antibacterial activity against Enterococcus faecalis ATCC 29212 after 18 to 24 hrs by CLSI-based broth microdilution method; assay type: functional; conditions: time hrs 18-24
[7] = Antibacterial activity against Salmonella pullorum 7913 after 18 to 24 hrs by CLSI-based broth microdilution method; assay type: functional, Salmonella enterica subsp. enterica serovar Pullorum; conditions: Salmonella enterica, time hrs 18-24
[8] = Therapeutic index, ratio of MHC for human RBC to geometric mean of peptide MIC for Salmonella choleraesuis 503; assay type: toxicity; conditions: human red blood cells (RBC), read-out: TI
Streptococcus agalactiae = assay: Antibacterial activity against Streptococcus agalactiae H92 after 18 to 24 hrs by CLSI-based broth microdilution method; assay type: functional; conditions: time hrs 18-24
Escherichia coli [9] = assay: Antibacterial activity against Escherichia coli ATCC 25922 after 18 to 24 hrs by CLSI-based broth microdilution method; assay type: functional; conditions: time hrs 18-24
Erythrocyte = assay: Hemolytic activity in human RBC assessed as hemolysis; assay type: ADME, cell-based
[10] = Therapeutic index, ratio of MHC for human RBC to geometric mean of peptide MIC for Enterococcus faecalis ATCC 29212; assay type: toxicity; conditions: human red blood cells (RBC), read-out: TI
[11] = Therapeutic index, ratio of MHC for human RBC to geometric mean of peptide MIC for Salmonella pullorum 7913; assay type: toxicity; conditions: human red blood cells (RBC), read-out: TI
Staphylococcus aureus [12] = assay: Antibacterial activity against Staphylococcus aureus 11011 after 18 to 24 hrs by CLSI-based broth microdilution method; assay type: functional; conditions: time hrs 18-24
[13] = Cytotoxicity against mouse RAW264.7 cells assessed as cell viability at 128 uM by MTT assay relative to control; assay type: cell-based; conditions: read-out: Activity
[14] = Cytotoxicity against HEK-293T cells assessed as cell viability at 128 uM by MTT assay relative to control; assay type: cell-based; conditions: human, read-out: Activity
[15] = Therapeutic index, ratio of MHC for human RBC to geometric mean of peptide MIC for Staphylococcus aureus ATCC 29213; assay type: toxicity; conditions: human red blood cells (RBC), read-out: TI
Staphylococcus aureus [16] = assay: Antibacterial activity against Staphylococcus aureus ATCC 29213 after 18 to 24 hrs by CLSI-based broth microdilution method; assay type: functional; conditions: time hrs 18-24
[17] = test system: Staphylococcus epidermidis; assay: Antibacterial activity against Staphylococcus epidermidis ATCC 12228 after 18 to 24 hrs by CLSI-based broth microdilution method; assay type: functional; conditions: time hrs 18-24
[18] = Therapeutic index, ratio of MHC for human RBC to geometric mean of peptide MIC for Staphylococcus aureus 11011; assay type: toxicity; conditions: human red blood cells (RBC), read-out: TI
Escherichia coli [19] = assay: Antibacterial activity against Escherichia coli UB1005 after 18 to 24 hrs by CLSI-based broth microdilution method; assay type: functional; conditions: time hrs 18-24
Salmonella typhimurium [20] = assay: Antibacterial activity against Salmonella typhimurium 7731 after 18 to 24 hrs by CLSI-based broth microdilution method; assay type: functional, Salmonella enterica subsp. enterica serovar Typhimurium; conditions: Salmonella enterica, time hrs 18-24
Salmonella enterica = assay: Antibacterial activity against Salmonella choleraesuis 503 after 18 to 24 hrs by CLSI-based broth microdilution method; assay type: functional; conditions: time hrs 18-24
[21] = Therapeutic index, ratio of MHC for human RBC to geometric mean of peptide MIC for Staphylococcus epidermidis ATCC 12228; assay type: toxicity; conditions: human red blood cells (RBC), read-out: TI
[22] = Therapeutic index, ratio of MHC for human RBC to geometric mean of peptide MIC for methicillin-resistant Staphylococcus aureus 43300; assay type: toxicity; conditions: human red blood cells (RBC), read-out: TI
[23] = Therapeutic index, ratio of MHC for human RBC to geometric mean of peptide MIC for Salmonella typhimurium 14028; assay type: toxicity; conditions: human red blood cells (RBC), read-out: TI
[24] = Therapeutic index, ratio of MHC for human RBC to geometric mean of peptide MIC for Streptococcus agalactiae H92; assay type: toxicity; conditions: human red blood cells (RBC), read-out: TI

| SMILES | MIC (Staphylococcus aureus [1]) | MIC (Salmonella typhimurium [2]) | selectivity ratio [3] | selectivity ratio [4] | selectivity ratio [5] | hemolysis at up to 128 µM [6] | MIC (Enterococcus faecalis) | MIC [7] | selectivity ratio [8] | MIC (Streptococcus agalactiae) | MIC (Escherichia coli [9]) | MHC (Erythrocyte) | selectivity ratio [10] | selectivity ratio [11] | MIC (Staphylococcus aureus [12]) | viability at 128 µM [13] | viability at 128 µM [14] | selectivity ratio [15] | MIC (Staphylococcus aureus [16]) | MIC [17] | further results |
| --- | --- | --- | --- | --- | --- | --- | --- | --- | --- | --- | --- | --- | --- | --- | --- | --- | --- | --- | --- | --- | --- |
| CC[C@H](C)[C@H](N)C(=O)N[C@@H](CS)C(=O)N[C@@H](CCCNC(=N)N)C(=O)N[C@@H](CCCCN)C(=O)N1CCC[C@H]1C(=O)N[C@H](C(=O)N[C@H](C(=O)N[C@@H](CS)C(=O)N[C@@H](CCCNC(=N)N)C(=O)N[C@@H](CCCCN)C(=O)N1CCC[C@H]1C(=O)N[C@H](C(N)=O)[C@@H](C)CC)[C@@H](C)CC)[C@@H](C)CC (H-ICRKPIICRKPI-NH2) | > 64 µM | > 64 µM | 2 | 2 | 2 | < 5% | > 64 µM | > 64 µM | 2 | > 64 µM | 64 µM (≈ 92.1 µg/mL) | > 128 µM | 2 | 2 | > 64 µM | > 90% | > 90% | 2 | > 64 µM | > 64 µM | selectivity ratio [18]: 2; MIC (Escherichia coli [19]): > 64 µM; MIC (Salmonella typhimurium [20]): > 64 µM; MIC (Salmonella enterica): > 64 µM; selectivity ratio [21]: 2; selectivity ratio [22]: 2; selectivity ratio [23]: 2; selectivity ratio [24]: 2 |
| CC[C@H](C)[C@H](N)C(=O)N[C@@H](CS)C(=O)N[C@@H](CCCNC(=N)N)C(=O)N[C@@H](CCCCN)C(=O)N1CCC[C@H]1C(=O)N[C@H](C(=O)N[C@H](C(=O)N[C@@H](CS)C(=O)N[C@@H](CCCNC(=N)N)C(=O)N[C@@H](CCCCN)C(=O)N1CCC[C@H]1C(=O)N[C@H](C(=O)N[C@H](C(=O)N[C@@H](CS)C(=O)N[C@@H](CCCNC(=N)N)C(=O)N[C@@H](CCCCN)C(=O)N1CCC[C@H]1C(=O)N[C@H](C(N)=O)[C@@H](C)CC)[C@@H](C)CC)[C@@H](C)CC)[C@@H](C)CC)[C@@H](C)CC (H-ICRKPIICRKPIICRKPI-NH2) | > 64 µM | 8 µM (≈ 17.2 µg/mL) | 11.3 | 11.3 | 11.3 | < 5% | > 64 µM | 64 µM (≈ 138 µg/mL) | 11.3 | > 64 µM | 8 µM (≈ 17.2 µg/mL) | > 128 µM | 2 | 11.3 | > 64 µM | > 90% | > 90% | 2 | > 64 µM | > 64 µM | selectivity ratio [18]: 2; MIC (Escherichia coli [19]): 4 µM (≈ 8.6 µg/mL); MIC (Salmonella typhimurium [20]): 8 µM (≈ 17.2 µg/mL); MIC (Salmonella enterica): 16 µM (≈ 34.4 µg/mL); selectivity ratio [21]: 2; selectivity ratio [22]: 2; selectivity ratio [23]: 11.3; selectivity ratio [24]: 2 |
| CC[C@H](C)[C@H](N)C(=O)N[C@@H](CS)C(=O)N[C@@H](CCCNC(=N)N)C(=O)N[C@@H](CCCCN)C(=O)N1CCC[C@H]1C(=O)N[C@H](C(=O)N[C@H](C(=O)N[C@@H](CS)C(=O)N[C@@H](CCCNC(=N)N)C(=O)N[C@@H](CCCCN)C(=O)N1CCC[C@H]1C(=O)N[C@H](C(=O)N[C@H](C(=O)N[C@@H](CS)C(=O)N[C@@H](CCCNC(=N)N)C(=O)N[C@@H](CCCCN)C(=O)N1CCC[C@H]1C(=O)N[C@H](C(=O)N[C@H](C(=O)N[C@@H](CS)C(=O)N[C@@H](CCCNC(=N)N)C(=O)N[C@@H](CCCCN)C(=O)N1CCC[C@H]1C(=O)N[C@H](C(=O)N[C@H](C(=O)N[C@@H](CS)C(=O)N[C@@H](CCCNC(=N)N)C(=O)N[C@@H](CCCCN)C(=O)N1CCC[C@H]1C(=O)N[C@H](C(N)=O)[C@@H](C)CC)[C@@H](C)CC)[C@@H](C)CC)[C@@H](C)CC)[C@@H](C)CC)[C@@H](C)CC)[C@@H](C)CC)[C@@H](C)CC)[C@@H](C)CC (H-ICRKPIICRKPIICRKPIICRKPIICRKPI-NH2) | > 64 µM | 4 µM (≈ 14.3 µg/mL) | 28.5 | 28.5 | 28.5 | < 5% | > 64 µM | 8 µM (≈ 28.6 µg/mL) | 28.5 | > 64 µM | 4 µM (≈ 14.3 µg/mL) | > 128 µM | 2 | 28.5 | > 64 µM | > 90% | > 90% | 2 | > 64 µM | > 64 µM | selectivity ratio [18]: 2; MIC (Escherichia coli [19]): 2 µM (≈ 7.14 µg/mL); MIC (Salmonella typhimurium [20]): 4 µM (≈ 14.3 µg/mL); MIC (Salmonella enterica): 8 µM (≈ 28.6 µg/mL); selectivity ratio [21]: 2; selectivity ratio [22]: 2; selectivity ratio [23]: 28.5; selectivity ratio [24]: 2 |
| CC[C@H](C)[C@H](N)C(=O)N[C@H](C(=O)N[C@@H](CS)C(=O)N[C@@H](CCCNC(=N)N)C(=O)N[C@@H](CCCCN)C(=O)N1CCC[C@H]1C(=O)N[C@H](C(=O)N[C@H](C(=O)N[C@@H](CS)C(=O)N[C@@H](CCCNC(=N)N)C(=O)N[C@@H](CCCCN)C(=O)N1CCC[C@H]1C(=O)N[C@H](C(=O)N[C@H](C(N)=O)[C@@H](C)CC)[C@@H](C)CC)[C@@H](C)CC)[C@@H](C)CC)[C@@H](C)CC (H-IICRKPIICRKPII-NH2) | > 64 µM | 32 µM (≈ 53.3 µg/mL) | 4 | 4 | 4 | < 5% | > 64 µM | > 64 µM | 4 | > 64 µM | 16 µM (≈ 26.6 µg/mL) | > 128 µM | 2 | 4 | > 64 µM | > 90% | > 90% | 2 | > 64 µM | > 64 µM | selectivity ratio [18]: 2; MIC (Escherichia coli [19]): 16 µM (≈ 26.6 µg/mL); MIC (Salmonella typhimurium [20]): 32 µM (≈ 53.3 µg/mL); MIC (Salmonella enterica): > 64 µM; selectivity ratio [21]: 2; selectivity ratio [22]: 2; selectivity ratio [23]: 4; selectivity ratio [24]: 2 |
